# Measured values taken from US20240182495A1, “ANTIBACTERIAL COMPOUNDS” (JANSSEN SCIENCES IRELAND UNLIMITED COMPANY, priority 2021, published 2024).
# Read-outs that look alike come from different tables or passages of the source.
# Columns and labels:
# [1] = test system: Mycobacterium tuberculosis strain (EH4.0, GFP-expressing; Test 2: H37Rv); assay: MIC determination against M. tuberculosis, Test 1 (and/or Test 2); type: cell-based; details: 7 days incubation, fluorescence; for IC50: Mycobacterium tuberculosis, H37RV, 168 h
# [2] = LM Clint (microsomal stability), human; type: in vitro ADME
# Source text: (§1) The compounds of the invention/examples may have advantages associated with in vitro potency, kill kinetics (i.e. bactericidal effect) in vitro, PK properties, food effect, safety/toxicity (including liver toxicity, coagulation, 5-LO oxygenase), metabolic stability, Ames II negativity, MINT negativity, aqueous based solubility (and ability to formulate) and/or cardiovascular effect e.g. on animals (e.g. anesthetized guinea pig). Data that is generated/calculated may be obtained using standard methods/assays, for instance that are available in the literature or which may be performed by a supplier (e.g. Microsomal Stability Assay—Cyprotex, Mitochondrial toxicity (Glu/Gal) assay—Cyprotex, as well as literature CYP cocktail inhibition assays). GSH can be measured (reactive metabolites, […]) to observe if a dihydrodiol is observed by LCMS (fragmentation ions), which would correspond to a dihydroxylation on the core heterocycle.
# physchem [3] = type: physicochemical
# Source text: as §1
# [4] = test system: CYPs (all isoforms, or the isoforms not named for that compound); assay: CYP cocktail inhibition, all / other isoforms; type: in vitro ADME; details: read-out: CYPS IC50 (all / others)
# Source text: as §1
# hERG = hERG (Homo sapiens, UniProt Q12809); assay: sync hERG; type: cell-based
# hERG, sequence (Q12809 whole entry): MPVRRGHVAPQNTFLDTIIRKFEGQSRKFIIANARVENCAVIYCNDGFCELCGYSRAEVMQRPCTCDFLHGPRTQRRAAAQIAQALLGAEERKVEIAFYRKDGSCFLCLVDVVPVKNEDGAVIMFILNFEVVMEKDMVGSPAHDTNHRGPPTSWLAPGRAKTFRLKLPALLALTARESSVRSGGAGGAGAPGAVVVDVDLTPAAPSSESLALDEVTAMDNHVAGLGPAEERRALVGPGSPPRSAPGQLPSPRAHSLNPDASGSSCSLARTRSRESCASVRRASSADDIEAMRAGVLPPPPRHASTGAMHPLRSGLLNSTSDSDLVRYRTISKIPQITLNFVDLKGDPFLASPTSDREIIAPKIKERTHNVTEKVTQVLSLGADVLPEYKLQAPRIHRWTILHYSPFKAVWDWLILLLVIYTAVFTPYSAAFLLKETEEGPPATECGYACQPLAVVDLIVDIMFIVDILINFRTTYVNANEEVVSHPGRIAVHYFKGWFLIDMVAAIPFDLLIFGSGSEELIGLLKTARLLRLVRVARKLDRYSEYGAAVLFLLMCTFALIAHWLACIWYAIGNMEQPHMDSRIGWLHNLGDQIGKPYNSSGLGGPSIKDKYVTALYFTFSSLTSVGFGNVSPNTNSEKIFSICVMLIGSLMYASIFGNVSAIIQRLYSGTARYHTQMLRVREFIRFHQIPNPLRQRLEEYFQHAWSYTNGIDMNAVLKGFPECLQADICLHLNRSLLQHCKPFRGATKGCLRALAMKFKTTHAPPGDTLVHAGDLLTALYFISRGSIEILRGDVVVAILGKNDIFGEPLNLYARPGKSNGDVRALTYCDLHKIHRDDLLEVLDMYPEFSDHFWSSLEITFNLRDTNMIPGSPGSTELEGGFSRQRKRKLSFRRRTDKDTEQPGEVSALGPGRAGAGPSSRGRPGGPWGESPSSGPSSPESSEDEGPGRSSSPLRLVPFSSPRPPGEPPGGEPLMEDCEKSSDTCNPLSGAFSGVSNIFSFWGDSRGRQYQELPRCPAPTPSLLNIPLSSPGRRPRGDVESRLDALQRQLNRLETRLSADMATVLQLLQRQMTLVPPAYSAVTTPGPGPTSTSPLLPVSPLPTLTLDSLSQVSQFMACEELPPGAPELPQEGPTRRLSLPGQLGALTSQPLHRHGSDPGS
# AMES II = details: score
# Source text: as §1
# [5] = Mitochondrial toxicity (Glu/Gal) assay; type: cell-based; details: for Glu/Gal: Gal: galactose medium; for Glu/Gal: Glu: glucose medium; on all read-outs here: unit not given here
# Source text: as §1
# physchem [6] = type: physicochemical; remark: listed apart in the source
# [7] = Chemical stability testing in DMSO, ACN/H2O, ACN/0.1N HCl, ACN/0.1N NaOH (% by LCMS); type: physicochemical
# Procedure: Preliminary Protocol • Add 3 μl of a 10 mM DMSO stock solution to 1 ml of the following solvents in a 1.5 ml HPLC vial. • DMSO (reference solution) • H2O/Acetonitril 1/1 (assay solution) • 0.1N HCl/Acetonitril 1/1 (assay solution) • Mix well, […] LCMS • Compare the chromatograms of the two assay solutions with the reference solution and report the additional peaks as degradation peaks
# in vitro [8] = details: human, plasma
# in vitro [9] = details: mouse, plasma
# physchem [10] = assay: physchem
# [11] = MDCK permeability / efflux; details: dog, MDCK; on MDCK AB+inh: unit not given here
# MDCK = MDCK permeability / efflux; details: A to B with inhibitor; on MDCK AB+inh: unit not given here
# 2C9 = 2C9 (Homo sapiens, UniProt P11712); assay: CYP cocktail inhibition, 2C9; type: in vitro ADME; details: read-out: CYPS IC50 2C9
# 2C9, sequence (P11712 whole entry): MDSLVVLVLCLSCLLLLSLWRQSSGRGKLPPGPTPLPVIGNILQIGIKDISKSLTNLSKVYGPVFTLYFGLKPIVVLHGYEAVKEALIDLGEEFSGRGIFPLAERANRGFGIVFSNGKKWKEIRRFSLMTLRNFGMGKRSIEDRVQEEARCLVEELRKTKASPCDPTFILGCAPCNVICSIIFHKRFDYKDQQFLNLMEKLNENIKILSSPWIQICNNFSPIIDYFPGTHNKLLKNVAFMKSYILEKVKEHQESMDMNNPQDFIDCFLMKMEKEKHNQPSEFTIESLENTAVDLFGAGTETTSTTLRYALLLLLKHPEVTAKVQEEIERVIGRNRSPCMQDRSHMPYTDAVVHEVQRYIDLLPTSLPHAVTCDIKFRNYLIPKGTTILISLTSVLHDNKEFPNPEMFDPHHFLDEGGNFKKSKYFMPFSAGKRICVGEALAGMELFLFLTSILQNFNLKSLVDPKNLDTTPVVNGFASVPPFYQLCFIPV
# Source text: as §1
# [12] = LM Clint (microsomal stability), mouse; type: in vitro ADME; details: mouse, microsomes
# Source text: as §1
# 2C19 = 2C19 (Homo sapiens, UniProt P33261); assay: CYP cocktail inhibition, 2C19; type: in vitro ADME; details: read-out: CYPS IC50 2C19
# 2C19, sequence (P33261 whole entry): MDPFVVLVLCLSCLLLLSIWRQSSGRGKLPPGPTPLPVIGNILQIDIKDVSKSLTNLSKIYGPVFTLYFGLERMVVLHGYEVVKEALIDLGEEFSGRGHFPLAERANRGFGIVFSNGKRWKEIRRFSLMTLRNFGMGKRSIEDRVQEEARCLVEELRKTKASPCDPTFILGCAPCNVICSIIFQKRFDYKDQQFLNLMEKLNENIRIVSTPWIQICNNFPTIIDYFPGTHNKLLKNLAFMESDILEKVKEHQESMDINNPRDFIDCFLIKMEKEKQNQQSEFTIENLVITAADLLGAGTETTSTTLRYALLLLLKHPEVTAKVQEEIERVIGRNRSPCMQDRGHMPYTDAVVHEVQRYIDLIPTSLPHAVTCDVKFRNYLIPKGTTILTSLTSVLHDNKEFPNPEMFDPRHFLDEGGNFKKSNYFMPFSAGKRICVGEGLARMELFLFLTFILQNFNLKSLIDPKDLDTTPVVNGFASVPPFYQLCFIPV
# Source text: as §1
# in vitro [13] = details: mouse, hepatocytes
# M. tuberculosis H37Rv = details: strain H37Rv, inside macrophages; cited from earlier work
# [14] = h (human) liver microsomes, read-out: LM Clint
# [15] = pH 2, simulated gastric fluid, thermodynamic from solid
# [16] = pH 7, aqueous buffer, thermodynamic from solid
structure (smiles),measurement,setting,value
CCc1nc2ncc(Cl)cn2c1C(=O)NCc1ccc(-c2nc3n(n2)CCN(S(=O)(=O)C(F)(F)F)C3)cc1 [Compound 2],IC50,[1],0.01 µM
same,microsomal CLint,[2]; [14],9.3 µL/min/mg
same,solubility thermodynamic,physchem [3]; [15],0.99 µM
same,solubility thermodynamic,physchem [3]; [16],< 0.13 µM
same,IC50,[4],> 20 µM
same,IC50,hERG,> 30 µM
same,AMES II,AMES II,1
same,Glu/Gal: Gal,[5],> 100
same,Glu/Gal: Glu,[5],> 100
same,purity,"physchem [6]; 0.065 mg/mL in SGF with 20% ACN, at 0 hr",99.56%
same,purity,"physchem [6]; 0.065 mg/mL in SGF with 20% ACN, at 0.25 hr",99.38%
same,purity,"physchem [6]; 0.065 mg/mL in SGF with 20% ACN, at 0.5 hr",99.21%
same,purity,"physchem [6]; 0.065 mg/mL in SGF with 20% ACN, at 1 hr",98.89%
same,purity,"physchem [6]; 0.065 mg/mL in SGF with 20% ACN, at 2 hr",98.28%
same,purity,"physchem [6]; 0.065 mg/mL in SGF with 20% ACN, at 4 hr",97.1%
same,half-life at 0.065 mg/mL,physchem [6]; simulated gi fluid,113 h
same,chemical stability (% by LCMS),"[7]; 72 h, 30 µM",100%
same,chemical stability (% by LCMS),"[7]; 72 h, 30 µM, pH 1.6",90.52%
same,fraction unbound,in vitro [8],0.0117
same,fraction unbound,in vitro [9],0.0054
same,solubility,physchem [10]; fassif,< 5 µM
same,solubility,physchem [10]; fessif,24.4 µM
same,efflux ratio,[11],12.6
same,MDCK AB+inh,MDCK,32.5
O=C(NCc1ccc(-c2nc3n(n2)CCN(S(=O)(=O)C(F)(F)F)C3)c(F)c1)c1c(C(F)(F)F)nc2ccccn12 [Compound 6],IC50,[1],0.0832 µM
same,purity,"physchem [6]; 0.052 mg/mL in SGF with 33.3% ACN, remained so up to 4 hrs",99.88%
same,chemical stability (% by LCMS),"[7]; 48 h, 30 μM",100%
same,chemical stability (% by LCMS),"[7]; 48 h, 30 μM, pH 1.6",100%
CCc1nc2ncc(C)cn2c1C(=O)NCc1ccc(-c2nc3n(n2)CCN(S(=O)(=O)C(F)(F)F)C3)c(F)c1 [Compound 7],IC50,[1],0.00851 µM
same,microsomal CLint,[2]; [14],22.6 µL/min/mg
same,solubility thermodynamic,physchem [3]; [15],125 µM
same,solubility thermodynamic,physchem [3]; [16],1.62 µM
same,IC50,[4]; human,> 20 µM
same,IC50,2C9,15.5 µM
same,IC50,hERG,> 30 µM
same,Glu/Gal: Gal,[5],> 200
same,Glu/Gal: Glu,[5],> 200
same,chemical stability (% by LCMS),"[7]; 72 h, 30 µM",100%
same,chemical stability (% by LCMS),"[7]; 72 h, 30 µM, pH 1.6",100%
same,efflux ratio,[11],61.7
same,MDCK AB+inh,MDCK,21.4
CCc1nc2cc(OC)c(Cl)cn2c1C(=O)NCc1ccc(-c2nc3n(n2)CCN(S(=O)(=O)C(F)(F)F)C3)c(F)c1 [Compound 10],IC50,[1],> 0.5 µM
same,chemical stability (% by LCMS),"[7]; 72 h, 30 µM",97.03%
same,chemical stability (% by LCMS),"[7]; 72 h, 30 µM, pH 1.6",100%
CCc1nc2nc(N)c(Cl)cn2c1C(=O)NCc1ccc(-c2nc3n(n2)CCN(S(=O)(=O)C(F)(F)F)C3)c(F)c1 [Compound 12],IC50,[1],0.0933 µM
same,chemical stability (% by LCMS),"[7]; 72 h, 30 µM",96.14%
same,chemical stability (% by LCMS),"[7]; 72 h, 30 µM, pH 1.6",97.06%
CCc1nc2cc(N)c(Cl)cn2c1C(=O)NCc1ccc(-c2nc3n(n2)CCN(S(=O)(=O)C(F)(F)F)C3)c(F)c1 [Compound 14],IC50,[1],0.105 µM
same,chemical stability (% by LCMS),"[7]; 72 h, 30 µM",100%
same,chemical stability (% by LCMS),"[7]; 72 h, 30 µM, pH 1.6",100%
CCc1nc2ccc(Cl)cn2c1C(=O)NCc1cnc(-c2nc3n(n2)CCN(S(=O)(=O)C(F)(F)F)C3)c(F)c1 [Compound 15],IC50,[1],0.501 µM
same,chemical stability (% by LCMS),"[7]; 72 h, 30 µM",97.03%
same,chemical stability (% by LCMS),"[7]; 72 h, 30 µM, pH 1.6",97.49%
CCc1nc2ccc(C)cn2c1C(=O)NCc1ccc(-c2nc3n(n2)CCN(S(=O)(=O)C(F)(F)F)C3)cc1 [Compound 24],IC50,[1],0.00891 µM
same,chemical stability (% by LCMS),"[7]; 0 h, 30 μM",100%
same,chemical stability (% by LCMS),"[7]; 0 h, 30 μM, pH 1.6",100%
same,chemical stability (% by LCMS),"[7]; 0 h, 30 μM, pH 9",89.46%
same,chemical stability (% by LCMS),"[7]; 48 h, 30 μM",100%
same,chemical stability (% by LCMS),"[7]; 48 h, 30 μM, pH 1.6",100%
same,chemical stability (% by LCMS),"[7]; 48 h, 30 μM, pH 9",43.8%
Cc1cnc2nc(C3CC3)c(C(=O)NCc3ccc(-c4nc5n(n4)CCN(S(=O)(=O)C(F)(F)F)C5)cc3)n2c1 [Compound 42],IC50,[1],0.00501 µM
same,chemical stability (% by LCMS),"[7]; 48 h, 30 μM",100%
same,chemical stability (% by LCMS),"[7]; 48 h, 30 μM, pH 1.6",100%
CCc1nc2ncc(C)cn2c1C(=O)NCc1ccc(-c2cc3n(n2)CCN(S(=O)(=O)C(F)(F)F)C3)cc1 [Compound 44],IC50,[1],0.00219 µM
same,chemical stability (% by LCMS),"[7]; 48 h, 30 μM",100%
same,chemical stability (% by LCMS),"[7]; 48 h, 30 μM, pH 1.6",100%
CCc1nc2ncc(C)cn2c1C(=O)NCc1ccc(-c2nc3n(n2)CCN(S(=O)(=O)N2CCCC2)C3)cc1 [Compound 47],IC50,[1],0.02 µM
same,chemical stability (% by LCMS),"[7]; 48 h, 30 μM",99%
same,chemical stability (% by LCMS),"[7]; 48 h, 30 μM, pH 1.6",100%
CCc1nc2ncc(C)cn2c1C(=O)NCCc1ccc(-c2nc3n(n2)CCN(S(=O)(=O)C(F)(F)F)C3)cc1 [Compound 66],pIC50,[1],6.57
same,chemical stability (% by LCMS),"[7]; ACN/0.1N HCl (pH 1.6; 48 hr, rt)",98%
same,chemical stability (% by LCMS),"[7]; ACN/H2O (48 hr, rt)",98%
same,chemical stability (% by LCMS),"[7]; DMSO (0 hr, rt)",91%
CCc1nc2ncc(Cl)cn2c1C(=O)NCc1cnc(-c2nc3n(n2)CCN(S(=O)(=O)C(F)(F)F)C3)c(F)c1 [Compound 77],IC50,[1],0.457 µM
CCc1nc2cc(N)c(Cl)cn2c1C(=O)NCc1cnc(-c2nc3n(n2)CCN(S(=O)(=O)C(F)(F)F)C3)c(F)c1 [Compound 78],IC50,[1],> 0.501 µM
CCc1nc2ccc(C)cn2c1C(=O)NCc1ccc(-c2cn3c(n2)CN(S(=O)(=O)C(F)(F)F)CC3)cc1 [Compound 79],IC50,[1],0.00676 µM
same,microsomal CLint,"[2]; human, microsomes",39.8 µL/min/mg
same,microsomal CLint,[12],13.2 µL/min/mg
same,solubility thermodynamic,physchem [3]; [15],574 µM
same,solubility thermodynamic,"physchem [3]; pH 4, aqueous buffer",0.062 µM
same,IC50,[4]; human,> 20 µM
same,IC50,2C9,17.7 µM
same,IC50,2C19,14.4 µM
same,IC50,hERG,30.2 µM
same,AMES II,AMES II,1
same,Glu/Gal: Gal,[5],> 200
same,Glu/Gal: Glu,[5],> 200
same,chemical stability (% by LCMS),"[7]; 0 h, 30 μM",100%
same,chemical stability (% by LCMS),"[7]; 48 h, 30 μM",100%
same,chemical stability (% by LCMS),"[7]; 48 h, 30 μM, pH 1.6",100%
same,half-life,in vitro [13],0.722 h
same,solubility,physchem [10]; fassif,5.6 µM
same,solubility,physchem [10]; fessif,29.3 µM
same,MDCK AB+inh,MDCK,42.7
CCc1nc2ccc(C)cn2c1C(=O)NCc1ccc(-c2cc3n(n2)CCN(S(=O)(=O)C(F)(F)F)C3)cc1 [Compound 81],IC50,[1],0.0204 µM
same,chemical stability (% by LCMS),"[7]; 0 h, 30 μM",95%
same,chemical stability (% by LCMS),"[7]; 48 h, 30 μM",100%
same,chemical stability (% by LCMS),"[7]; 48 h, 30 μM, pH 1.6",100%
CCc1nc2ccc(Cl)cn2c1C(=O)NCc1ccc(N2CCC(c3ccc(OC(F)(F)F)cc3)CC2)cc1 [Compound Q203],MIC50,M. tuberculosis H37Rv,0.00028 µM
